{"source": "patent US10294202B2", "about": "“Pyrrolidinones as herbicides” (FMC Corporation, priority 2013, dated 2019)", "key": {"galium": {"system": "galium", "assay": "Test C pre-/postemergence herbicide test", "format": "in vivo, Galium aparine", "procedure,_shortened": "(§1)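 Pre-emergence: seeds sown in loam/sand blend and treated with compound in surfactant-containing solvent. Post-emergence: plants at 2–18 cm (1- to 4-leaf stage) in peat-based medium sprayed with the same formulation. Visual rating versus controls after 13–15 days in greenhouse, scale 0 (no effect) to 100 (complete control).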"}, "rice": {"system": "rice", "assay": "Test B flooded paddy test", "format": "in vivo, Oryza sativa", "conditions": "1000 g ai/ha, Flood; scale of 0 to 100 where 0 is no effect and 100 is complete control", "procedure,_shortened": "(§2)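 Paddy-water application at a 3 cm flood, young plants having two leaves. Water level maintained; greenhouse, 13–15 days; visual 0–100 control rating.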"}, "lambsquarters": {"system": "lambsquarters", "assay": "Test C pre-/postemergence herbicide test", "format": "in vivo, Chenopodium album", "procedure,_shortened": "as §1"}, "crabgrass, large": {"system": "crabgrass, large", "assay": "Test C pre-/postemergence herbicide test", "format": "in vivo, Digitaria sanguinalis", "procedure,_shortened": "as §1"}, "barnyardgrass [1]": {"system": "barnyardgrass", "assay": "Test A pre-/postemergence herbicide test", "format": "in vivo, Echinochloa crus-galli", "procedure,_shortened": "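Seeds in loam–sand blend received preemergence directed soil spray; separately, plants 2–10 cm at one- to two-leaf stage received postemergence spray, both with test chemicals in non-phytotoxic solvent with surfactant. After ~10 days in greenhouse, injury rated visually against untreated controls, 0 (no effect) to 100 (complete control).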"}, "corn": {"system": "corn", "assay": "Test C pre-/postemergence herbicide test", "format": "in vivo, Zea mays", "procedure,_shortened": "as §1"}, "pigweed": {"system": "pigweed", "assay": "Test C pre-/postemergence herbicide test", "format": "in vivo, Amaranthus retroflexus", "procedure,_shortened": "as §1"}, "blackgrass": {"system": "blackgrass", "assay": "Test C pre-/postemergence herbicide test", "format": "in vivo, Alopecurus myosuroides", "procedure,_shortened": "as §1"}, "foxtail, giant": {"system": "foxtail, giant", "assay": "Test C pre-/postemergence herbicide test", "format": "in vivo, Setaria faberii", "procedure,_shortened": "as §1"}, "barnyardgrass [2]": {"system": "barnyardgrass", "assay": "Test B flooded paddy test", "format": "in vivo, Echinochloa crus-galli", "conditions": "1000 g ai/ha, Flood; scale of 0 to 100 where 0 is no effect and 100 is complete control", "procedure,_shortened": "as §2"}, "velvetleaf": {"system": "velvetleaf", "assay": "Test C pre-/postemergence herbicide test", "format": "in vivo, Abutilon theophrasti", "procedure,_shortened": "as §1"}, "[3]": {"conditions": "Postemergence, 31 g ai/ha, scale 0 to 100 (0 no effect, 100 complete control)"}, "[4]": {"conditions": "Postemergence, 62 g ai/ha, scale 0 (no effect) to 100 (complete control)"}, "[5]": {"conditions": "Postemergence, 125 g ai/ha, scale 0 to 100 (0 no effect, 100 complete control)"}, "[6]": {"conditions": "Postemergence, 250 g ai/ha, scale 0 to 100 (0 no effect, 100 complete control)"}, "[7]": {"conditions": "Preemergence, 62 g ai/ha, scale 0 to 100 (0 no effect, 100 complete control)"}, "[8]": {"conditions": "Preemergence, 125 g ai/ha, scale 0 to 100"}, "[9]": {"conditions": "Preemergence, 31 g ai/ha, scale 0 to 100"}}, "data": [{"compound": "O=C1NCC(c2ccc(F)c(F)c2)C1C(=O)Nc1ccc(F)c(F)c1F", "note": "(centres unmarked) [Compound 346]", "values": [{"measurement": "Plant response rating, Galium", "setting": "galium; [3]", "value": 30}, {"measurement": "Plant response rating, Galium", "setting": "galium; [4]", "value": 25}, {"measurement": "Plant response rating, Galium", "setting": "galium; [5]", "value": 40}, {"measurement": "Plant response rating, Galium", "setting": "galium; [6]", "value": 70}, {"measurement": "Galium plant response rating", "setting": "galium; [7]", "value": 20}, {"measurement": "Plant response rating, Galium", "setting": "galium; [8]", "value": 90}, {"measurement": "Plant response rating (scale of 0 to 100), Galium", "setting": "galium; Preemergence, 250 g ai/ha", "value": 90}, {"measurement": "Plant response rating, Galium", "setting": "galium; [9]", "value": 10}, {"measurement": "Plant response rating, Rice", "setting": "rice", "value": 0}, {"measurement": "Plant response rating, Lambsquarters", "setting": "lambsquarters; [3]", "value": 45}, {"measurement": "Plant response rating, Lambsquarters", "setting": "lambsquarters; [4]", "value": 5}, {"measurement": "Plant response rating, Lambsquarters", "setting": "lambsquarters; [5]", "value": 5}, {"measurement": "Plant response rating, Lambsquarters", "setting": "lambsquarters; [6]", "value": 65}, {"measurement": "Lambsquarters plant response rating", "setting": "lambsquarters; [7]", "value": 35}, {"measurement": "Plant response rating, Lambsquarters", "setting": "lambsquarters; [8]", "value": 100}, {"measurement": "Plant response rating (scale of 0 to 100), Lambsquarters", "setting": "lambsquarters; Preemergence, 250 g ai/ha", "value": 100}, {"measurement": "Plant response rating, Lambsquarters", "setting": "lambsquarters; [9]", "value": 35}, {"measurement": "Plant response rating, Crabgrass, Large", "setting": "crabgrass, large; [3]", "value": 0}, {"measurement": "Plant response rating, Crabgrass, Large", "setting": "crabgrass, large; [4]", "value": 25}, {"measurement": "Plant response rating, Crabgrass, Large", "setting": "crabgrass, large; [5]", "value": 60}, {"measurement": "Plant response rating, Crabgrass, Large", "setting": "crabgrass, large; [6]", "value": 75}, {"measurement": "Crabgrass, Large plant response rating", "setting": "crabgrass, large; [7]", "value": 95}, {"measurement": "Plant response rating, Crabgrass, Large", "setting": "crabgrass, large; [8]", "value": 98}, {"measurement": "Plant response rating (scale of 0 to 100), Crabgrass, Large", "setting": "crabgrass, large; Preemergence, 250 g ai/ha", "value": 100}, {"measurement": "Plant response rating, Crabgrass, Large", "setting": "crabgrass, large; [9]", "value": 95}, {"measurement": "Plant response rating, Barnyardgrass", "setting": "barnyardgrass [1]; Postemergence, 125 g ai/ha, visual rating on 0 to 100 scale (0 no effect, 100 complete control), approx. 10 days", "value": 80}, {"measurement": "Plant response rating, Barnyardgrass", "setting": "barnyardgrass [1]; Postemergence, 500 g ai/ha, 0 to 100 scale (0 no effect, 100 complete control)", "value": 90}, {"measurement": "Plant response rating, Barnyardgrass", "setting": "barnyardgrass [1]; Preemergence, 125 g ai/ha, 0 to 100 scale where 0 is no effect and 100 is complete control", "value": 80}, {"measurement": "Barnyardgrass plant response rating", "setting": "barnyardgrass [1]; Preemergence, 500 g ai/ha, visual rating on 0 to 100 scale (0 no effect, 100 complete control)", "value": 90}, {"measurement": "Plant response rating, Corn", "setting": "corn; [3]", "value": 0}, {"measurement": "Plant response rating, Corn", "setting": "corn; [4]", "value": 0}, {"measurement": "Plant response rating, Corn", "setting": "corn; [5]", "value": 0}, {"measurement": "Plant response rating, Corn", "setting": "corn; [6]", "value": 0}, {"measurement": "Corn plant response rating", "setting": "corn; [7]", "value": 0}, {"measurement": "Plant response rating, Corn", "setting": "corn; [8]", "value": 0}, {"measurement": "Plant response rating (scale of 0 to 100), Corn", "setting": "corn; Preemergence, 250 g ai/ha", "value": 5}, {"measurement": "Plant response rating, Corn", "setting": "corn; [9]", "value": 0}, {"measurement": "Plant response rating, Pigweed", "setting": "pigweed; [3]", "value": 5}, {"measurement": "Plant response rating, Pigweed", "setting": "pigweed; [4]", "value": 5}, {"measurement": "Plant response rating, Pigweed", "setting": "pigweed; [5]", "value": 20}, {"measurement": "Plant response rating, Pigweed", "setting": "pigweed; [6]", "value": 40}, {"measurement": "Pigweed plant response rating", "setting": "pigweed; [7]", "value": 55}, {"measurement": "Plant response rating, Pigweed", "setting": "pigweed; [8]", "value": 60}, {"measurement": "Plant response rating, Pigweed", "setting": "pigweed; [9]", "value": 40}, {"measurement": "Plant response rating, Blackgrass", "setting": "blackgrass; [3]", "value": 0}, {"measurement": "Plant response rating, Blackgrass", "setting": "blackgrass; [4]", "value": 0}, {"measurement": "Plant response rating, Blackgrass", "setting": "blackgrass; [5]", "value": 0}, {"measurement": "Plant response rating, Blackgrass", "setting": "blackgrass; [6]", "value": 5}, {"measurement": "Blackgrass plant response rating", "setting": "blackgrass; [7]", "value": 60}, {"measurement": "Plant response rating, Blackgrass", "setting": "blackgrass; [8]", "value": 75}, {"measurement": "Plant response rating (scale of 0 to 100), Blackgrass", "setting": "blackgrass; Preemergence, 250 g ai/ha", "value": 85}, {"measurement": "Plant response rating, Blackgrass", "setting": "blackgrass; [9]", "value": 20}, {"measurement": "Plant response rating, Foxtail, Giant", "setting": "foxtail, giant; [3]", "value": 20}, {"measurement": "Plant response rating, Foxtail, Giant", "setting": "foxtail, giant; [4]", "value": 0}, {"measurement": "Plant response rating, Foxtail, Giant", "setting": "foxtail, giant; [5]", "value": 40}, {"measurement": "Plant response rating, Foxtail, Giant", "setting": "foxtail, giant; [6]", "value": 85}, {"measurement": "Foxtail, Giant plant response rating", "setting": "foxtail, giant; [7]", "value": 90}, {"measurement": "Plant response rating, Foxtail, Giant", "setting": "foxtail, giant; [8]", "value": 98}, {"measurement": "Plant response rating (scale of 0 to 100), Foxtail, Giant", "setting": "foxtail, giant; Preemergence, 250 g ai/ha", "value": 98}, {"measurement": "Plant response rating, Foxtail, Giant", "setting": "foxtail, giant; [9]", "value": 90}, {"measurement": "Plant response rating, Barnyardgrass", "setting": "barnyardgrass [2]", "value": 85}, {"measurement": "Plant response rating, Velvetleaf", "setting": "velvetleaf; [3]", "value": 0}, {"measurement": "Plant response rating, Velvetleaf", "setting": "velvetleaf; [4]", "value": 0}, {"measurement": "Plant response rating, Velvetleaf", "setting": "velvetleaf; [5]", "value": 5}, {"measurement": "Plant response rating, Velvetleaf", "setting": "velvetleaf; [6]", "value": 20}, {"measurement": "Velvetleaf plant response rating", "setting": "velvetleaf; [7]", "value": 0}, {"measurement": "Plant response rating, Velvetleaf", "setting": "velvetleaf; [8]", "value": 10}, {"measurement": "Plant response rating, Velvetleaf", "setting": "velvetleaf; [9]", "value": 0}]}]}
